Experimental data as given in patent publication US20050013914A1, “Method of sustaining aroma and use thereof” (priority 2001, published 2005).

What was measured:
Assay type in all cases: physicochemical
[1] = Adsorption of liquid ethanol or acetic acid on saccharide powder (Example C-1); conditions: until mixture did not keep a powder form; for Amount of Adsorbed Acetic Acid: acetic acid adsorbed on 1 g of saccharide; for Amount of Adsorbed Ethanol: ethanol adsorbed on 1 g of saccharide
From the text: CTS crystalline pentahydrate, prepared by the method described in Example B-3, CTS crystalline monohydrate, prepared by the method described in Example B-4, CTS crystalline anhydrate, prepared by the method described in Example B-5, or CTS amorphous anhydrate prepared by the method described in Example B-6, was used for preparation of aroma-retaining material. “ISOELEAT P™”, a branched cyclodextrin commercialized by Maruha corporation, Tokyo, Japan, anhydrous trehalose prepared by the method described in Japanese Patent Kokai No. 111,284/97, “PINEFIBRE™”, a dextrin commercialized by Matsutani Chemical Industries Co., Ltd., Tokyo, Japan, or soluble starch in a reagent grade commercialized by Katayama Chemical Industries, Co., Ltd., Tokyo, Japan, was dried in vacuo at 80° C. for 16 hours as control saccharides. […] The resulting mixture was weighed. The weight of ethanol or acetic acid was calculated by subtracting the pre-measured saccharide weight. The weight of ethanol or acetic acid adsorbed on 1 g of each saccharide was in Table 1.

[2] = Effect of suppressing volatilization: retained ethanol by gas chromatography (Example C-2); conditions: for Amount of Retained Ethanol: per 1 g of material
Procedure: About 5 g of an ethanol-retaining material with CTS crystalline anhydrate, branched cyclodextrin, anhydrous trehalose, or dextrin, prepared freshly by the method described in Example C-1, was taken into a 20 ml volume of glass vials. The vials were placed under normal pressure and room temperature for the purpose of evaporating ethanol. The amount of retained ethanol in samples freshly prepared, or after two hours later, four hours later, eight hours later, or 24 hours later, was measured by dissolving each sample in about 10 ml of water, diluting it with water to give a volume of 100 ml in a glass measuring flask, and measuring the amount of ethanol dissolved in the resulting aqueous solution by a gas chromatography. In the case of a soluble starch as a sample, additional centrifuging was carried out after diluting up to 100 ml. The above gas chromatography was carried out using “GC-14B” (a gas liquid chromatography commercialized by Shimazu Corporation, Kyoto, Japan) equipped with “TC-5” (a capillary column sized 0.53 mm in diameter and 15 m in length, commercialized by GL Sciences Inc., Tokyo, Japan). The amount of retained ethanol per 1 g of each material is in Table 2.
In this table, each value in the parentheses means a relative percentage to the ethanol amount (100%) just after its preparation.

[3] = Adsorption and 10-day retention of lavender oil, citronellol or phenethyl alcohol on saccharides (Example C-4); conditions: for Amount of the Adsorbed Substance: freshly prepared sample; for Relative Amount of the Retained Substance: preserved at 25° C. for 10 days vs freshly prepared
From the text: The following example is a test to confirm the effect of CTS crystalline hydrate, CTS crystalline anhydrate, or CTS amorphous anhydrate on retaining, as an aromatic substance, lavender oil, citronellol, or phenethyl alcohol. CTS crystalline pentahydrate prepared by the method described in Example B-3, CTS crystalline anhydrate in Example B-5, and CTS amorphous anhydrate in Example B-6 were used as the test saccharides “ISOELEAT P®”, a branched cyclodextrin commercialized by Maruha Corporation, Tokyo, Japan, was used as a control.
In the case of lavender oil, five parts by weight of each of the above saccharides were taken into a glass dish sized 90 mm in diameter and 20 mm in depth, admixed with one part by weight of lavender oil by stirring. Lavender oil was measured by the method described as follows; admixing 2 ml of diethyl ether with 1 g of each of the above samples freshly prepared or after preserved at 25° C. for 10 days; measuring the extracted lavender oil by gas chromatography using “GC-14B” (a gas chromatography commercialized by Shimazu corporation, Kyoto, Japan) equipped with “TC-Wax” (a capillary column sized 0.53 mm in diameter and 25 m in length commercialized by GL Sciences Inc., Tokyo, Japan.
In the case of citronellol or phenethyl alcohol, five parts by weight of each of the above saccharides were taken into a glass dish sized 90 mm in diameter and 20 mm in depth, admixed with one part by weight of citronellol or phenethyl alcohol, and mixed by stirring. The adsorbed citronellol or phenethyl alcohol was measured by admixing 2 ml of diethyl ether with 1 g of each of the above sample freshly prepared or after preserved at 25° C. for 10 days, and measuring the extracted lavender oil by gas chromatography using “GC-14B” (a gas chromatography device commercialized by Shimazu corporation, Kyoto, Japan) equipped with “DB-5” (a capillary column sized 0.25 mm in diameter and 30 m in length commercialized by GL Sciences Inc., Tokyo, Japan).
The amount of the retained aromatic substance in each sample was calculated using the following formula, and the results were shown in Table 4.
Formula: Relative amount of the retained Substance (%)={(an amount of aromatic substance in a sample preserved for 10 days)/(an amount of aromatic substance in a freshly prepared sample)}×100

[4] = 2 h later, normal pressure, room temperature
[5] = 4 h later, normal pressure, room temperature
[6] = 8 h later, normal pressure, room temperature
[7] = 24 h later, normal pressure, room temperature
[8] = citronellol, listed as Sample 2
[9] = lavender oil, listed as Sample 2
[10] = phenethyl alcohol, listed as Sample 2

Amount of Adsorbed Acetic Acid [1] | Amount of Adsorbed Ethanol [1] | Relative percentage to the ethanol amount just after preparation ([2]; 2 h later) | Relative percentage to the ethanol amount just after preparation ([2]; 4 h later) | Relative percentage to the ethanol amount just after preparation ([2]; 8 h later) | Relative percentage to the ethanol amount just after preparation ([2]; 24 h later) | Relative percentage to the ethanol amount just after preparation ([2]; freshly prepared) | Amount of Retained Ethanol [2, 4] | Amount of Retained Ethanol [2, 5] | Amount of Retained Ethanol [2, 6] | Amount of Retained Ethanol [2, 7] | Amount of Retained Ethanol ([2]; freshly prepared) | SMILES | other results
0.47 g | 0.50 g | (101%) | (87%) | (3%) | (2%) | (100%) | 335 mg | 290 mg | 10 mg | 5 mg | 333 mg | OCC1OC2OCC3O[C@H](O[C@H]4C(O)C(CO)OC(OCC5O[C@H](O[C@@H](C1O)C2O)C(O)C(O)[C@@H]5O)C4O)C(O)C(O)[C@@H]3O (some centres unmarked) [CTS crystalline anhydrate] | Adsorbing capability relative to branched cyclodextrin ([3]; citronellol): about 1.2 fold; Amount of the Adsorbed Substance ([3]; citronellol): 195 mg/g saccharide; Amount of the Adsorbed Substance [3, 8]: 195 mg/g saccharide; Relative Amount of the Retained Substance [3, 8]: 42%; Adsorbing capacity relative to branched cyclodextrin ([3]; lavender oil): about 1.3 fold; Amount of the Adsorbed Substance ([3]; lavender oil): 190 mg/g saccharide; Amount of the Adsorbed Substance [3, 9]: 190 mg/g saccharide; Relative Amount of the Retained Substance [3, 9]: 12%; Amount of the Adsorbed Substance ([3]; phenethyl alcohol): 190 mg/g saccharide; Amount of the Adsorbed Substance [3, 10]: 190 mg/g saccharide; Relative Amount of the Retained Substance [3, 10]: 16%
0.18 g | 0.25 g | (51%) | (8%) | (4%) | (2%) | (100%) | 103 mg | 17 mg | 8 mg | 5 mg | 203 mg | OC[C@H]1O[C@H](O[C@H]2O[C@H](CO)[C@@H](O)[C@H](O)[C@H]2O)[C@H](O)[C@@H](O)[C@@H]1O [Anhydrous trehalose, reference compound] | –
